Data on five compounds can be found in ChEMBL document CHEMBL1145498, “A systematic interaction map of validated kinase inhibitors with Ser/Thr kinases” (Proc Natl Acad Sci U S A, 2007).

Experiment [1] deals with T1, Myotonin-protein kinase (Homo sapiens) (UniProt Q09013).
T1 sequence (whole entry): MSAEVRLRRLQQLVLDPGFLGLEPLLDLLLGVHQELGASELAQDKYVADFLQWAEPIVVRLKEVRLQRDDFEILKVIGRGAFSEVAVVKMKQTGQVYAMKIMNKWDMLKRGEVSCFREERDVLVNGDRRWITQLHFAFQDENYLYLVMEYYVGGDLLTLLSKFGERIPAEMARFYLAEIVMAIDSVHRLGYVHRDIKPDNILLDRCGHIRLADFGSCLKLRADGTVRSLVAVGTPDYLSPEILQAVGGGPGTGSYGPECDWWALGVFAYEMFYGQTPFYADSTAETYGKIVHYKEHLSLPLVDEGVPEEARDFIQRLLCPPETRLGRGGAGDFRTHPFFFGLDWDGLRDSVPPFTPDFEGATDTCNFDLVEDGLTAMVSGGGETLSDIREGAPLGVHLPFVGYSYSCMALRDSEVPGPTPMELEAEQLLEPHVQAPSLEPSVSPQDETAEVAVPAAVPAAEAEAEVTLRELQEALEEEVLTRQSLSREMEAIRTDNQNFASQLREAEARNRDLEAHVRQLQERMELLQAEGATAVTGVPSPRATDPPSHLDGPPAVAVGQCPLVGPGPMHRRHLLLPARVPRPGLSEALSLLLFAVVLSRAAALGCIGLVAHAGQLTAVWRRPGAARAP

Experiment [2] concerns the target Mast/stem cell growth factor receptor Kit (Homo sapiens, UniProt P10721). Briefly: Inhibition of c-kit.
The target in experiment [3] is Cyclin-dependent kinase 16 (Homo sapiens) (UniProt Q00536).
The target in experiment [4] is 5'-AMP-activated protein kinase catalytic subunit alpha-2 (Homo sapiens) (UniProt P54646).
The target in experiment [5] is Serine/threonine-protein kinase PLK1 (Homo sapiens) (UniProt P53350).
Experiment [6] has as its target Ribosomal protein S6 kinase alpha-3 (Homo sapiens) (UniProt P51812).
In experiment [7] the target is Calcium/calmodulin-dependent protein kinase type 1G (Homo sapiens) (UniProt Q96NX5).
Experiment [8] has as its target Serine/threonine-protein kinase PAK 5 (Homo sapiens) (UniProt Q9P286).
For experiment [9], the target named is T2, Lymphokine-activated killer T-cell-originated protein kinase (Homo sapiens) (UniProt Q96KB5).
T2 sequence (whole entry): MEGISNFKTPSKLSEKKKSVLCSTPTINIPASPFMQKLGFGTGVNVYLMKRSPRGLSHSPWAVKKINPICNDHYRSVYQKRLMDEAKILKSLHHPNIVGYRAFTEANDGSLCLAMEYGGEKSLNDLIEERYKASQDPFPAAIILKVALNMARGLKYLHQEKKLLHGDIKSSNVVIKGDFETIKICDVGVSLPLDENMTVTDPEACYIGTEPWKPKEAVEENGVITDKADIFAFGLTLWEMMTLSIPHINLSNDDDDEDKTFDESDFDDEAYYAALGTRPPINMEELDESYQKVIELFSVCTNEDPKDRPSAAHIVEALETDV

Experiment [10] deals with T3, Serine/threonine-protein kinase Chk1 (Homo sapiens, UniProt O14757).
T3 sequence (O14757 whole entry): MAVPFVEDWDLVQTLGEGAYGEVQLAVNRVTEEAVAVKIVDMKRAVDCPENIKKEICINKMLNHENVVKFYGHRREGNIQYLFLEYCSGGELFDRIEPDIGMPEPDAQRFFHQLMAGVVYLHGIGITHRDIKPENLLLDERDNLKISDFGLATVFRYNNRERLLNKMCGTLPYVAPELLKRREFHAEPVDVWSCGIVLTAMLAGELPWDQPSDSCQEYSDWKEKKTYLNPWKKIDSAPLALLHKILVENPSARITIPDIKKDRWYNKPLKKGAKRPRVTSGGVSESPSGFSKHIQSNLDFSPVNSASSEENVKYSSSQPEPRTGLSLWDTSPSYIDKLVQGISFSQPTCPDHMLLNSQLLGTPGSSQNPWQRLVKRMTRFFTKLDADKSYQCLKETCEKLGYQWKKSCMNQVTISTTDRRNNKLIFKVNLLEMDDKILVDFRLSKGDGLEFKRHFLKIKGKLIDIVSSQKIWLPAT
Briefly: Inhibition of Chk1.

The target of experiment [11] is Serine/threonine-protein kinase Chk2 (Homo sapiens, UniProt O96017).
Experiment [12] deals with Proto-oncogene tyrosine-protein kinase Src (Homo sapiens, UniProt P12931). Briefly: Inhibition of Src. The note with it: read-out: IC50.
The target in experiment [13] is Mitogen-activated protein kinase 3 (Homo sapiens, UniProt P27361). Briefly: Inhibition of ERK1.
Mitogen-activated protein kinase 3, sequence (P27361 whole entry): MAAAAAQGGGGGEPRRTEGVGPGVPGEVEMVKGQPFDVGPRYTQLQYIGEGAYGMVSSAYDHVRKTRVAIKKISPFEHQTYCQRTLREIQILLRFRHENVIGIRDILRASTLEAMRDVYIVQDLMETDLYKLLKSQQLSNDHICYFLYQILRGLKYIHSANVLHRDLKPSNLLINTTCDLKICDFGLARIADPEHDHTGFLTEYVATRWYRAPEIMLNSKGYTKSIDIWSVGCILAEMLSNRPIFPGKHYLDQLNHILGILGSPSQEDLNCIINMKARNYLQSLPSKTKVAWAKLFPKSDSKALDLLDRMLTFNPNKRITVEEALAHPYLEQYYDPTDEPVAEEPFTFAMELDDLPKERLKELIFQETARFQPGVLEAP

Serine/threonine-protein kinase PLK1 (Homo sapiens), sequence (P53350 whole entry): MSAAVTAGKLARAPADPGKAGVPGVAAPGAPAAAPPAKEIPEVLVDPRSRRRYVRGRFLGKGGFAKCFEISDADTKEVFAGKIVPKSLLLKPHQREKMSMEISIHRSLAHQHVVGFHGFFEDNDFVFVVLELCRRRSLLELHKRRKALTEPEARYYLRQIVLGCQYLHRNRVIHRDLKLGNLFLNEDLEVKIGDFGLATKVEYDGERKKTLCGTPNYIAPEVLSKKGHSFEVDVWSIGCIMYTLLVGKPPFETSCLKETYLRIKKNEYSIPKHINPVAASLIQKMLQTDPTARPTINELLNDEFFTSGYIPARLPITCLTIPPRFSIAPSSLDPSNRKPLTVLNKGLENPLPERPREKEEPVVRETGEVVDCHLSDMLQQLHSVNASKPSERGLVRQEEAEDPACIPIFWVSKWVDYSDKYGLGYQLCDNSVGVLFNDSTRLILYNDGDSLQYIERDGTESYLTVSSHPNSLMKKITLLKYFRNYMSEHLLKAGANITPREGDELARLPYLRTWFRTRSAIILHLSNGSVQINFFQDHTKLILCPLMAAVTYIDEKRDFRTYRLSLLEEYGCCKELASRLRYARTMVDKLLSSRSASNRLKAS
Cyclin-dependent kinase 16 (Homo sapiens), sequence (Q00536 whole entry): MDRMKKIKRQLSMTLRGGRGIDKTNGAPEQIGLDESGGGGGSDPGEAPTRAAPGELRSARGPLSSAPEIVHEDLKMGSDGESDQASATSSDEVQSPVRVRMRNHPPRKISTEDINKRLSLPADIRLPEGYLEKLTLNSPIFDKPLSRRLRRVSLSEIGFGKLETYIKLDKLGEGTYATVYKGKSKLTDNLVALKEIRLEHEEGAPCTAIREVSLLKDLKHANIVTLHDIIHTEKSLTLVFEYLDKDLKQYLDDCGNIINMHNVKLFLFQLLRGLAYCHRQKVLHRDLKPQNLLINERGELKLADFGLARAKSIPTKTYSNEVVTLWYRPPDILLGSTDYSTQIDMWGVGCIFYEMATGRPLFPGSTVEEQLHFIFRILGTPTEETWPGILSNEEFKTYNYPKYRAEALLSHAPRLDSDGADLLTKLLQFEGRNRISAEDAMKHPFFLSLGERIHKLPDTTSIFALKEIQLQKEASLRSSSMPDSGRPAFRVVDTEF
5'-AMP-activated protein kinase catalytic subunit alpha-2 (Homo sapiens), sequence (P54646 whole entry, looked up): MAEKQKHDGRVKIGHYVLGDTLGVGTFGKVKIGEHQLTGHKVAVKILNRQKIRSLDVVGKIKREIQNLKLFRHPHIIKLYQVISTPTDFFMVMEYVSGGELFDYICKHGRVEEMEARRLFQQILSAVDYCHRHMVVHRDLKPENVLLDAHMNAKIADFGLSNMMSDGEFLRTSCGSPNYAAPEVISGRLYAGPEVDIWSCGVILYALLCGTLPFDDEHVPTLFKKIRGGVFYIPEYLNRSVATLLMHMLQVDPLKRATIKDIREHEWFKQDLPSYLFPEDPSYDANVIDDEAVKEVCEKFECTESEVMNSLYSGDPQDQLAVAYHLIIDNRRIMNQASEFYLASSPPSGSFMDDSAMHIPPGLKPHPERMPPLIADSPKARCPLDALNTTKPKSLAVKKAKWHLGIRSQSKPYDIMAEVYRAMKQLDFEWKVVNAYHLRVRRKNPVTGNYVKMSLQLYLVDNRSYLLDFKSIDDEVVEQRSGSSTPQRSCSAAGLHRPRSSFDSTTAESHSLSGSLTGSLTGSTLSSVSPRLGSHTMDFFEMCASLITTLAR
Calcium/calmodulin-dependent protein kinase type 1G (Homo sapiens), sequence (Q96NX5 whole entry): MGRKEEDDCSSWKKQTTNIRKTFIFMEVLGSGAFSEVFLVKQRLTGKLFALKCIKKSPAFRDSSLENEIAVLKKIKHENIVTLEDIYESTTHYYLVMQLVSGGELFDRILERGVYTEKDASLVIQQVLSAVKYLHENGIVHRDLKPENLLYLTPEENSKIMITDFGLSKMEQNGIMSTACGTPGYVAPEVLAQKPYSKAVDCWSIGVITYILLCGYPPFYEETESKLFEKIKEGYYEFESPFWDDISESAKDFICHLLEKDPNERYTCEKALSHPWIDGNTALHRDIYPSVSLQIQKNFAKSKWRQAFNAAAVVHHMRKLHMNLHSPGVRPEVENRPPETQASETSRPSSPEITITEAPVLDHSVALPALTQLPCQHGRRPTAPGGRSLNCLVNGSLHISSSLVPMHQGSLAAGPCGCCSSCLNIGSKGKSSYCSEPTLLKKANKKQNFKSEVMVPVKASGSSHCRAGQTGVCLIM
Mast/stem cell growth factor receptor Kit, sequence (P10721 whole entry): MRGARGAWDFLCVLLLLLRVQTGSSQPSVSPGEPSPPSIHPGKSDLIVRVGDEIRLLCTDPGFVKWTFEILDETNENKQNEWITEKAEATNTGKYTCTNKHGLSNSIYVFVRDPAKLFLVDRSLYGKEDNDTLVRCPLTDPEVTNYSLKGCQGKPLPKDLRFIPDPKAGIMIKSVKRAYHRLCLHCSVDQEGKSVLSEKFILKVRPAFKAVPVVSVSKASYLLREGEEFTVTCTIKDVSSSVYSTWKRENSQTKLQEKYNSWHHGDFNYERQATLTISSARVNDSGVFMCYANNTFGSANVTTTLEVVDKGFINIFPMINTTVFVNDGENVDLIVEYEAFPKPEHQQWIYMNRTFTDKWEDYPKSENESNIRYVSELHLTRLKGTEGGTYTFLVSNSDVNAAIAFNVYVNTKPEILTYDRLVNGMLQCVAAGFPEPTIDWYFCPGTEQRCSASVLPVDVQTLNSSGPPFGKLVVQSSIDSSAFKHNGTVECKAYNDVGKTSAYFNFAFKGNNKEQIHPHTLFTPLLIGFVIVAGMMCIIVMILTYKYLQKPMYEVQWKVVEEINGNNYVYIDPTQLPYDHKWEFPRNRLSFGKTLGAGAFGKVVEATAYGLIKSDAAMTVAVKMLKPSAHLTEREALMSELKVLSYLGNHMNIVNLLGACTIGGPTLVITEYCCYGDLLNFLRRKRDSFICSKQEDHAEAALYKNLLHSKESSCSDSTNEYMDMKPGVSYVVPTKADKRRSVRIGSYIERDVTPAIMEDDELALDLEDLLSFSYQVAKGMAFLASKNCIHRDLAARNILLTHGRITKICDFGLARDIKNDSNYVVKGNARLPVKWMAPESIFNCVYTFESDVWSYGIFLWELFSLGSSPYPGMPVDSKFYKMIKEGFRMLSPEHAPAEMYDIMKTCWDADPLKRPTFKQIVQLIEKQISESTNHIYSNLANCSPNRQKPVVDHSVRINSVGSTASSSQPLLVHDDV
Serine/threonine-protein kinase PAK 5 (Homo sapiens), sequence (Q9P286 whole entry, looked up): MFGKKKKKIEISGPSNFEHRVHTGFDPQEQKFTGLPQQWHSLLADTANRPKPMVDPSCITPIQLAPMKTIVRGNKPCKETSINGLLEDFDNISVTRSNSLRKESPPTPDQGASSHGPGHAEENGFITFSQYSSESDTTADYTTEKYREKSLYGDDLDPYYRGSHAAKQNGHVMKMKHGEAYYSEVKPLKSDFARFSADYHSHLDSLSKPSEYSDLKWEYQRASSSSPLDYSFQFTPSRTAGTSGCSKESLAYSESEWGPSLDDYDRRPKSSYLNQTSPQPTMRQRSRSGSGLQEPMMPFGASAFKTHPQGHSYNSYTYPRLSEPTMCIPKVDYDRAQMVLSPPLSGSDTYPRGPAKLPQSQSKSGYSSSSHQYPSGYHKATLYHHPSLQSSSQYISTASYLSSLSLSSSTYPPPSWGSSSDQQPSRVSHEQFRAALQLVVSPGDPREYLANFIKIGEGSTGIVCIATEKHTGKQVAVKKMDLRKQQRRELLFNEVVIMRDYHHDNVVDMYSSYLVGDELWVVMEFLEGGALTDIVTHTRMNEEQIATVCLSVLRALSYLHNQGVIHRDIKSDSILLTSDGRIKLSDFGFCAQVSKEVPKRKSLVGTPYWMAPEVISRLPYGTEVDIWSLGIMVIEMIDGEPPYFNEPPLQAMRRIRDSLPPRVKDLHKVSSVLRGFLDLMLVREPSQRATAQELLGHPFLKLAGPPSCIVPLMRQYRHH
Ribosomal protein S6 kinase alpha-3 (Homo sapiens), sequence (P51812 whole entry): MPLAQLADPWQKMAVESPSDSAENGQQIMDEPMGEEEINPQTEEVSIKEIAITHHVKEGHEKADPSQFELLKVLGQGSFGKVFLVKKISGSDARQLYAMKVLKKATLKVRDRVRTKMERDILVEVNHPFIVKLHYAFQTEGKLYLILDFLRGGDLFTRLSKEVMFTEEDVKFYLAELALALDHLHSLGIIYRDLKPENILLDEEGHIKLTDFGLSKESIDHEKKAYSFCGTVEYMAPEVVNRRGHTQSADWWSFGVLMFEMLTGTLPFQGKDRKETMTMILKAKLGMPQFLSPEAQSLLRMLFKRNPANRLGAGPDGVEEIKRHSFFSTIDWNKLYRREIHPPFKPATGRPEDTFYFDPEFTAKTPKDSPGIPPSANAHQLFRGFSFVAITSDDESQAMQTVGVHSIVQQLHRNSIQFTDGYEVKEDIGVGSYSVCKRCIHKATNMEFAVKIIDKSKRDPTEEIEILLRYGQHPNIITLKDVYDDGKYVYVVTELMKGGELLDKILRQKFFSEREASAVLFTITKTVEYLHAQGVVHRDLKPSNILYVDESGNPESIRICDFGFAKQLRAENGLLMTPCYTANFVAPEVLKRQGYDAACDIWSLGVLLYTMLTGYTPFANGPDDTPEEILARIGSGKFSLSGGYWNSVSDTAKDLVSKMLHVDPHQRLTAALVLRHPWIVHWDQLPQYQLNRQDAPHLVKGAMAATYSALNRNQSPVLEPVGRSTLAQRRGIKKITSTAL

What is called ΔTm is the shift of the melting midpoint relative to a reference. In general, IC50 refers to the concentration needed to halve the response being measured. For the compound `CCN(CC)CCNC(=O)c1c(C)[nH]c(/C=C2\C(=O)Nc3ccc(Cl)cc32)c1C` [SU-11652], the ΔTm in [1] worked out at 2.9 °C; in experiment [3] it was 3.5 °C; in experiment [4], 7 °C; in experiment [5] it was 0.5 °C; in experiment [6], 8.5 °C; in experiment [7] it was 5.7 °C. The ΔTm is 4.7 °C in experiment [8] and -0.4 °C in experiment [9]. The compound further came in with an IC50 in experiment [2] of 0.01 µM.
Turning to `O=C1NC(=O)c2c1c1c3ccccc3[nH]c1n1cncc21` [ISOGRANULATIMIDE], the ΔTm in experiment [1] was found to be 2.2 °C; in experiment [3], 3.1 °C; in experiment [4], 3.6 °C; in experiment [5], 9.3 °C; in [6], 5.2 °C; in experiment [7], 3.4 °C. The results for the ΔTm in experiment [8] and in experiment [9] were 1.3 °C and 1 °C, respectively. Also, the IC50 in experiment [10] stood at 0.1 µM; in experiment [11] it was 3 µM.
`CCCNC(=O)Nc1ccc(Oc2ncnc3cc(OC)c(OC)cc23)cc1Cl` [KRN-633]: the ΔTm in experiment [1] was 0.6 °C; in experiment [3], -0.1 °C; in experiment [4] it was 2.1 °C; in experiment [5] it was 0.1 °C; in experiment [6], 5.8 °C; in experiment [7] it was 1 °C. In addition, the ΔTm in experiment [8] was -0.2 °C; in experiment [9] it was 0.2 °C. This compound had an IC50 in [2] of 4.33 µM.
Regarding `c1ccc(-c2n[nH]c3c2oc2ccccc23)cc1`, the ΔTm in experiment [1] is 0 °C; in experiment [3], -0.2 °C; in [4], 0.5 °C; in experiment [5], 2.2 °C; in experiment [6] it was 0.8 °C; in experiment [7], 0.3 °C. Moreover, the ΔTm in experiment [8] was 0.3 °C; in experiment [9] it was -0.2 °C. Besides, the IC50 in [2] is 0.3 µM; in experiment [12] it was not below 10 µM; in experiment [13], not below 10 µM.
As to `NC1=N/C(=C2/CCNC(=O)c3[nH]ccc32)C(=O)N1` [DEBROMOHYMENIALDISINE], the ΔTm was 2.3 °C in experiment [1]; 0 °C in experiment [3]; -0.5 °C in [4]; 2.4 °C in [5]; 2.6 °C in [6]; 0.2 °C in experiment [7]. Besides, the ΔTm in experiment [8] is 0.2 °C; in experiment [9] it was -0.4 °C. In addition, the IC50 turned out to be 3 µM in experiment [10] and 3.5 µM in experiment [11].
